The text below walks through data of US20240425490A1, “SULFAMIDE RIBONUCLEOTIDE REDUCTASE (RNR) INHIBITORS AND USES THEREOF” (Boundless Bio, Inc., priority 2021, published 2024).

The target of this experiment is T1, RNR (RNR1:RNR2 1:1) (Homo sapiens, UniProt P23921).
T1 sequence (P23921 1-792): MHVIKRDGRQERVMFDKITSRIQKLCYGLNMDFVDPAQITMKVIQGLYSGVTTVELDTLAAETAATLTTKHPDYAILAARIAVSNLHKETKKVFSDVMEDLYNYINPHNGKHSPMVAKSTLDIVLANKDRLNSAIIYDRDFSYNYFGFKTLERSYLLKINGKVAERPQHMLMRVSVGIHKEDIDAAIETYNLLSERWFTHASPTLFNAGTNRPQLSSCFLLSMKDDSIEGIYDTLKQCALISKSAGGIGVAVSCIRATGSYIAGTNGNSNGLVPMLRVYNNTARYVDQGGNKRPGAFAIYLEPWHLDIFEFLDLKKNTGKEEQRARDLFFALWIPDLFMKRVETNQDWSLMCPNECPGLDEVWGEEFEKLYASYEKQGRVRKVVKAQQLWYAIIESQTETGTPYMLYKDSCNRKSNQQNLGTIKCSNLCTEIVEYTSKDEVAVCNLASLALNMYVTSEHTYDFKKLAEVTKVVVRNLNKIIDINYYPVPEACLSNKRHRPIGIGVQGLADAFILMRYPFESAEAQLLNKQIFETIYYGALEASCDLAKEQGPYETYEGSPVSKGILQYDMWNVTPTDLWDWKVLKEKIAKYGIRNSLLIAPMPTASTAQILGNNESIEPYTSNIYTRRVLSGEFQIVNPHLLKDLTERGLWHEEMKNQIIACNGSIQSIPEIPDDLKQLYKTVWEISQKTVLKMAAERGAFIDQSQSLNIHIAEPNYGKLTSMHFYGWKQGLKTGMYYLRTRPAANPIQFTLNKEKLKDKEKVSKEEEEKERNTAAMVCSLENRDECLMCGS
As to the kind of experiment: RNR enzyme activity, rapid-fire mass spectrometry (RFMS) assay. It counts as biochemical. The following applies: RNR 50 nM, CDP 5 μM, ATP 1 mM, 37° C., 45 min, compounds screened up to 50 μM, read-out: RF/MS IC50. Summed up:
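Human RNR1:RNR2 (1:1, 50 nM) pre-incubated 15 min at room temperature with compound, then reacted with 5 μM CDP and 1 mM ATP, no NADPH, for 45 min at 37 °C. Stopped with 6% HCOOH; turnover read by rapid-fire mass spectrometry; Triapine and hydroxyurea as reference compounds.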
As for `Cc1ccc(F)c([C@@H](C)[C@H](NS(=O)(=O)N2CCCC[C@@H]2C(N)=O)c2n[nH]c(=O)o2)c1C` [Example 12, (R)-1-(N-((1S,2R)-2-(6-fluoro-2,3-dimethylphenyl)-1-(5-oxo-4,5-dihydro-1,3,4-oxadiazol-2-yl)propyl)sulfamoyl)piperidine-2-carboxamide], the IC50 is 1000 to 10000 nM.

Regarding `C#CC1CCN(S(=O)(=O)N[C@H](c2n[nH]c(=O)o2)[C@@H](C)c2c(F)ccc(C)c2C)CC1` [Example 47, 4-ethynyl-N-((1S,2S)-2-(6-fluoro-2,3-dimethylphenyl)-1-(5-oxo-4,5-dihydro-1,3,4-oxadiazol-2-yl)propyl)piperidine-1-sulfonamide], the IC50 is 10000 to 100000 nM.

As to `Cc1ccc(F)c([C@@H](C)[C@H](NS(=O)(=O)N2CCC3(CCCCC3)CC2)c2n[nH]c(=O)o2)c1C` [Example 87, N-((1S,2R)-2-(6-fluoro-2,3-dimethylphenyl)-1-(5-oxo-4,5-dihydro-1,3,4-oxadiazol-2-yl)propyl)-3-azaspiro[5.5]undecane-3-sulfonamide], the IC50 lay within 100 to 1000 nM.

`Cc1ccc(F)c([C@@H](C)[C@H](NS(=O)(=O)N2CCC(C(F)F)CC2)c2n[nH]c(=O)o2)c1C` [Example 45, 4-(difluoromethyl)-N-((1S,2R)-2-(6-fluoro-2,3-dimethylphenyl)-1-(5-oxo-4,5-dihydro-1,3,4-oxadiazol-2-yl)propyl)piperidine-1-sulfonamide]: the IC50 fell in the range of 1000 to 10000 nM.

As to `Cc1ccc(F)c(C(C)[C@H](NS(=O)(=O)N2CCC3(CCOCC3)CC2)c2n[nH]c(=O)o2)c1C` (stereo partly drawn) [Example 91, N-((1S)-2-(6-fluoro-2,3-dimethylphenyl)-1-(5-oxo-4,5-dihydro-1,3,4-oxadiazol-2-yl)propyl)-3-oxa-9-azaspiro[5.5]undecane-9-sulfonamide], the IC50 lay in the range of 100 to 1000 nM.

On to `Cc1ccc(F)c([C@@H](C)[C@H](NS(=O)(=O)N2CC(C)CC(C)C2)c2n[nH]c(=O)o2)c1C` (stereo partly drawn) [Example 121, N-((1S,2R)-2-(6-fluoro-2,3-dimethylphenyl)-1-(5-oxo-4,5-dihydro-1,3,4-oxadiazol-2-yl)propyl)-3,5-dimethylpiperidine-1-sulfonamide], for which the IC50 is 1000 to 10000 nM.

Turning to `CC(=O)[C@H]1CCCCN1S(=O)(=O)N[C@H](c1n[nH]c(=O)o1)[C@H](C)c1c(F)ccc(C)c1C` [Example 19, (R)-2-acetyl-N-((1S,2R)-2-(6-fluoro-2,3-dimethylphenyl)-1-(5-oxo-4,5-dihydro-1,3,4-oxadiazol-2-yl)propyl)piperidine-1-sulfonamide], the IC50 is 1000 to 10000 nM.

As to `COCC1CCN(S(=O)(=O)N[C@H](c2n[nH]c(=O)o2)[C@H](C)c2c(F)ccc(C)c2C)CC1` [Example 127, N-((1S,2R)-2-(6-fluoro-2,3-dimethylphenyl)-1-(5-oxo-4,5-dihydro-1,3,4-oxadiazol-2-yl)propyl)-4-(methoxymethyl)piperidine-1-sulfonamide], the IC50 is 100 to 1000 nM.

Turning to `Cc1ccc(F)c(C(C)[C@H](NS(=O)(=O)N2CCC(F)(F)C2)c2n[nH]c(=O)o2)c1C` (stereo partly drawn) [Example 137, 3,3-difluoro-N-((1S)-2-(6-fluoro-2,3-dimethylphenyl)-1-(5-oxo-4,5-dihydro-1,3,4-oxadiazol-2-yl)propyl)pyrrolidine-1-sulfonamide], the IC50 lay in the range of 10000 to 100000 nM.

Take `Cc1ccc(F)c([C@@H](C)[C@H](NS(=O)(=O)N2CCCCC2CC(N)=O)c2n[nH]c(=O)o2)c1C` (stereo partly drawn) [Example 15, 2-(1-(N-((1S,2R)-2-(6-fluoro-2,3-dimethylphenyl)-1-(5-oxo-4,5-dihydro-1,3,4-oxadiazol-2-yl)propyl)sulfamoyl)piperidin-2-yl)acetamide]: the IC50 is 100 to 1000 nM.

For `Cc1ccc(F)c([C@@H](C)[C@H](NS(=O)(=O)N2C3CCC2CC(F)(F)C3)c2n[nH]c(=O)o2)c1C` [Example 110, 3,3-difluoro-N-((1S,2R)-2-(6-fluoro-2,3-dimethylphenyl)-1-(5-oxo-4,5-dihydro-1,3,4-oxadiazol-2-yl)propyl)-8-azabicyclo[3.2.1]octane-8-sulfonamide], the IC50 fell in the range of 100 to 1000 nM.
